The text below walks through data of PubChem BioAssay (NCI).

Assay in all cases: NCI-60 cell line screen, 48 h
Test [1] has as its system IGROV1 ovarian.
The subject of test [2] is OVCAR-3 ovarian.
The test system of test [3] is M19-MEL melanoma.
The subject of test [4] is DLD-1 colon.
For test [5], the system named is LOX IMVI melanoma.
Test [6] deals with HCT-116 colon.
In test [7] the test system is A549 NSCLC.
The test system of test [8] is OVCAR-4 ovarian.
Test [9] relates to CAKI-1 renal.
Test [10] deals with HS 578T breast.

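Cells were grown in 96-well plates and exposed to each compound for 48 hours at five concentrations; endpoints were interpolated linearly between bracketing concentrations, or set to the highest concentration if not reached. The concentration for 50% growth inhibition is given as GI50. TGI: total growth inhibition.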 A value given as a limit tells only on which side of the number the result lay.

For `C/C(CC(=O)Nc1cc(Cl)c(Cl)cc1Cl)=N\NS(=O)(=O)c1ccc(C)cc1`, the TGI was > 100 µM in test [1]; 74.7 µM in [2]; 94.4 µM in test [3]; > 100 µM in test [4]; > 100 µM in test [5]; 59.6 µM in test [6]. The TGI in test [7] is > 100 µM.

For `O=C1/C(=C/c2ccc(Cl)cc2)COc2ccc(Br)cc21`, the TGI in [1], in [2], in test [3], in [4], in test [5] and in [6] was > 100 µM in each case. For the same compound, the TGI in [7] was > 100 µM.

As to `COc1ccccc1NC(=O)NS(=O)(=O)c1ccccc1`, the TGI in [8], in test [3], in [4], in test [9], in test [5] and in test [6] was > 100 µM throughout. Also, in test [7], the TGI is > 100 µM.

`CC(C(=O)C(C)O[Si](c1ccccc1)(c1ccccc1)C(C)(C)C)=P(c1ccccc1)(c1ccccc1)c1ccccc1` (centres undefined): the TGI in [1] was found to be 13.9 µM; in [8], 13.9 µM; in test [2], 9.38 µM; in test [3], 11.4 µM; in test [4], 14.9 µM; in test [5], 11.1 µM. Besides, the values for the TGI in test [6] and in test [7] were 10.6 µM and 13.3 µM, respectively.

Consider `O=C1/C(=C/c2ccccc2)CN(C(=O)Oc2ccccc2)C/C1=C\c1ccccc1`, for which the TGI in [1] is 83.2 µM; in test [8], > 100 µM; in test [2] it was > 100 µM; in test [3], > 100 µM; in [5] it was 29.9 µM; in [6], 28.7 µM. Further, the TGI in [7] was > 100 µM.

As to `CCCN(CCC)c1c([N+](=O)[O-])cc(C(N)=O)cc1[N+](=O)[O-]`, the TGI in test [1], in [8], in test [2], in test [3], in [4] and in test [9] was > 100 µM in each case. The TGI in test [6] and in test [7] was > 100 µM in each case.

In the case of `COc1cccc(C2N3CCCCC3[C@@H]3c4[nH]c5ccccc5c4CCN23)c1OC` (some centres undefined), the TGI in [1] was 34.7 µM; in test [8], 31.5 µM; in [2] it was 25.9 µM; in [3], 29.4 µM; in test [4], 31.2 µM; in test [9] it was 33.5 µM. Also, the results for the TGI in test [6] and in [7] were 31.1 µM and 29.9 µM, respectively.

With `CC(C)=CCCC1(C)C=Cc2c(ccc3c2[nH]c2cc(O)c(C)cc23)O1` (centres undefined), the TGI in test [1] was > 2.5 µM; in test [8], > 25 µM; in test [2], 9.07 µM; in test [3], 16.8 µM; in test [4] it was 22.9 µM; in test [5], 8.19 µM. Further, the TGI in test [6] was > 25 µM; in test [7] it was 17.5 µM. Besides, the GI50 in [3] is 6.99 µM; in [4] it was 8.89 µM; in test [5] it was 4.53 µM; in test [6], 8.79 µM; in test [7] it was 6.59 µM.

Take `CCc1cc2c(c3[nH]ccc13)[C@@H](C)C[C@H]2C`: the TGI in test [1] was 36.2 µM; in [2], 37.1 µM; in test [3], 32.2 µM; in [4] it was 36.3 µM; in test [9], 34.7 µM; in [5], 25.3 µM. The TGI in test [6] was 30.1 µM; in test [7] it was 42.2 µM.

For `CC(C)S(=O)(=O)ON1C(=O)c2ccc([N+](=O)[O-])cc2C1=O`, the TGI in [1], in test [8], in test [2], in [3], in [4] and in test [9] was > 100 µM each time. In addition, the TGI in test [6] and in test [7] was > 100 µM throughout.

For the compound `CC(=O)O[C@H]1Cc2c([nH]c3ccccc23)[C@@H](c2ccc(Cl)cc2)N1C(=O)CCNC(C)(C)C`, the GI50 in test [1] is 2.19 µM; in [8], 3.06 µM; in test [2], 3.98 µM; in test [10], 3.76 µM; in [9], 2.77 µM; in test [5], 2.43 µM. Besides, the GI50 was 1.64 µM in test [6] and 5.19 µM in [7]. The TGI was determined as 7.77 µM in test [1]; 7.14 µM in [8]; 8.59 µM in [2]; 13 µM in [10]; 7.01 µM in test [9]; 6.72 µM in test [5]. For the same compound, the TGI in test [6] turned out to be 6.32 µM; in [7], 10.1 µM.

As for `CCN(CC)Cc1cc(Nc2c3ccc(Cl)cc3nc3c(C)cccc23)ccc1O`, the GI50 in test [1] is 0.56 µM; in [8], 1.53 µM; in test [2], 1.97 µM; in [10] it was 1.92 µM; in test [9] it was 1.53 µM; in test [5] it was 1.29 µM. Also, the results for the GI50 in [6] and in [7] were 0.982 µM and 1.64 µM, respectively. The TGI in [1] was determined as 1.78 µM; in test [8] it was 2.97 µM; in test [2] it was 3.73 µM; in test [10] it was 4.57 µM; in test [9], 2.92 µM; in [5], 2.61 µM. Besides, the TGI is 2.21 µM in test [6] and 4.64 µM in [7].

As to `O=C1NC(=Nc2ccccc2Cl)SC1C(=O)Nc1ccc([N+](=O)[O-])cc1[N+](=O)[O-]` (centres undefined), the TGI in test [1], in [8], in test [2], in test [3], in test [4] and in test [9] was > 100 µM each time. Also, the TGI in [6] and in test [7] was > 100 µM in each case.

Take `O=C1CCC(=O)C(C(=O)CCC(=O)Nc2ccc(Cl)cc2)C1` (centres undefined): the TGI in test [1], in test [8], in test [2], in test [4], in [9] and in [5] was > 100 µM throughout. For the same compound, the TGI in test [6] and in test [7] was > 100 µM in each case.
